# Data from US7125883B1, “Integrin receptor ligands” (Abbott GmbH & Co. KG, priority 1999, dated 2006).
# Molecular target: integrin αvβ3 (Homo sapiens, UniProt P05106+P06756)
# Assay: Integrin αvβ3 assay (competition with vitronectin for binding to solid-phase integrin αvβ3)
# Details: competition between human vitronectin and test substance for binding to integrin αvβ3 bound to a solid phase; only a ranking in words is given
row,IC50 values (concentration of the ligand at which 50% of the ligand is displaced),SMILES
1,best result,Cc1cn(CC(CC(=O)O)NC(=O)OCc2ccccc2)c(=O)nc1NCc1ccc(CNc2ccccn2)cc1.O=C(O)C(F)(F)F (stereo not shown) [Example I-54]
2,best result,"O=C(O)C(F)(F)F.O=C(O)CC(Cn1cc(C2CCOCC2)c(NCCC(=O)Nc2ncc[nH]2)nc1=O)NC(=O)OCc1ccccc1 (stereo not shown) [Example I-61, 2-[(3-{[1-(2-{[(Benzyloxy)carbonyl]amino}-3-carboxy-propyl)-2-oxo-5-tetrahydro-2H-pyran-4-yl-1,2-dihydropyrimidin-4-yl]amino}propanoyl)amino]-1H-imidazol-1-ium trifluoroacetate]"
3,best result,"O=C(O)C(F)(F)F.O=C(O)CC(Cn1cc(-c2ccccc2)c(NCCC(=O)Nc2ncc[nH]2)nc1=O)NC(=O)OCc1ccccc1 (stereo not shown) [Example I-63, 2-[(3-{[1-(2-{[(Benzyloxy)carbonyl]amino}-3-carboxy-propyl)-2-oxo-5-phenyl-1,2-dihydropyrimidin-4-yl]amino}-propanoyl)amino]-1H-imidazol-1-ium trifluoroacetate]"
4,best result,"CCCc1cn(C[C@H](NC(=O)OCc2ccccc2)C(=O)O)c(=O)nc1N1CCC(CNc2ccccn2)CC1.O=C(O)C(F)(F)F [Example I-64, 2-[({1-[1-((2S)-{[(Benzyloxy)carbonyl]amino}-2-carboxy-ethyl)-2-oxo-5-propyl-1,2-dihydropyrimidin-4-yl]-piperidin-4-yl}methyl)amino]pyridinium trifluoroacetate]"
